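A five-concentration, 48-hour dose response in 96-well plates underlies each endpoint, interpolated linearly between surrounding concentrations. At the GI50, growth is halved.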 The source made the active and inactive calls. No stated cut-off is given here; in the data, active = GI50 up to about 1.1 µM and inactive = higher.
Key:
Assay in all cases: NCI tumour cell line growth inhibition, 48 h
ACHN = tested on: ACHN
CAKI-1 = tested on: CAKI-1
CCRF-CEM = tested on: CCRF-CEM
HCT-15 = tested on: HCT-15
HOP-92 = tested on: HOP-92
Hs-578T = tested on: Hs-578T
K562 = tested on: K562
MDA-MB-231 = tested on: MDA-MB-231
MDA-MB-435 = tested on: MDA-MB-435
NCI-H460 = tested on: NCI-H460
NCI-H522 = tested on: NCI-H522
SF-295 = tested on: SF-295
SF-539 = tested on: SF-539
SK-MEL-2 = tested on: SK-MEL-2
SW-620 = tested on: SW-620
T47D = tested on: T47D
U-251 = tested on: U-251
UACC-257 = tested on: UACC-257
UO-31 = tested on: UO-31
HL-60 = tested on: HL-60

SMILES	GI50 (ACHN)	GI50 (CAKI-1)	GI50 (CCRF-CEM)	GI50 (HCT-15) [µM]	GI50 (HOP-92)	GI50 (Hs-578T)	GI50 (K562)	GI50 (MDA-MB-231)	GI50 (MDA-MB-435)	GI50 (NCI-H460)	GI50 (NCI-H522)	GI50 (SF-295)	GI50 (SF-539)	GI50 (SK-MEL-2)	GI50 (SW-620)	GI50 (T47D)	GI50 (U-251)	GI50 (UACC-257)	GI50 (UO-31)	GI50 (HL-60)
Cc1cc(C(C)(C)C)cc(CNC2CCCCC2)c1O	17.1 µM (inactive)	16.4 µM (inactive)	17.9 µM (inactive)	16.6	15.5 µM (inactive)	20.2 µM (inactive)	21.7 µM (inactive)	18 µM (inactive)	19.5 µM (inactive)	14.8 µM (inactive)	12.6 µM (inactive)	16 µM (inactive)	18.2 µM (inactive)	17.7 µM (inactive)	19.9 µM (inactive)	14.8 µM (inactive)	16.3 µM (inactive)	14.9 µM (inactive)	14.9 µM (inactive)	
Cc1ccc2c(=O)c(-c3nnsn3)c[nH]c2n1	> 100 µM (inactive)	> 100 µM (inactive)	> 100 µM (inactive)	> 100		> 100 µM (inactive)	> 100 µM (inactive)	> 100 µM (inactive)	> 100 µM (inactive)	> 100 µM (inactive)	> 100 µM (inactive)	> 100 µM (inactive)		> 100 µM (inactive)	> 100 µM (inactive)	> 100 µM (inactive)	> 100 µM (inactive)	> 100 µM (inactive)	> 100 µM (inactive)	> 100 µM (inactive)
Cc1c[n+]([O-])c2ccccc2[n+]1[O-]	> 100 µM (inactive)	> 100 µM (inactive)	> 100 µM (inactive)	> 100	> 100 µM (inactive)	> 100 µM (inactive)	> 100 µM (inactive)	> 100 µM (inactive)	> 100 µM (inactive)	> 100 µM (inactive)	> 100 µM (inactive)	> 100 µM (inactive)	> 100 µM (inactive)	> 100 µM (inactive)	> 100 µM (inactive)	> 100 µM (inactive)	> 100 µM (inactive)	> 100 µM (inactive)	> 100 µM (inactive)	
Cc1ccc(NCCCN2CCN(CCCNc3ccc(C)c4sc5ccccc5c(=O)c34)CC2)c2c(=O)c3ccccc3sc12	> 100 µM (inactive)	> 100 µM (inactive)	> 100 µM (inactive)	> 100		37.2 µM (inactive)	> 100 µM (inactive)	> 100 µM (inactive)	> 100 µM (inactive)	> 100 µM (inactive)	> 100 µM (inactive)	55.6 µM (inactive)	> 100 µM (inactive)	23.4 µM (inactive)	> 100 µM (inactive)	58.7 µM (inactive)	67.6 µM (inactive)	> 100 µM (inactive)	> 100 µM (inactive)	> 100 µM (inactive)
ClC(Cl)(Cl)C(N1CCN(c2ccccc2)CC1)N1CCN(c2ccccc2)CC1	> 100 µM (inactive)	> 100 µM (inactive)		> 100	> 100 µM (inactive)	> 100 µM (inactive)	> 100 µM (inactive)	> 100 µM (inactive)	> 100 µM (inactive)	> 100 µM (inactive)	> 100 µM (inactive)			> 100 µM (inactive)		> 100 µM (inactive)	> 100 µM (inactive)	> 100 µM (inactive)	> 100 µM (inactive)	
CN(C)CCNc1nc2c(no[n+]2[O-])c2ccccc12.[O-][Cl+3]([O-])([O-])O	13.8 µM (inactive)	26.1 µM (inactive)	30.3 µM (inactive)	18	22.1 µM (inactive)	40.6 µM (inactive)	28.8 µM (inactive)	14.8 µM (inactive)	18 µM (inactive)	19.5 µM (inactive)	24.4 µM (inactive)	28 µM (inactive)	11.5 µM (inactive)	19.4 µM (inactive)	11.1 µM (inactive)	57.9 µM (inactive)	31.5 µM (inactive)	16.8 µM (inactive)	19.5 µM (inactive)	
CN(/N=C/c1cccs1)c1ccc(Cl)cc1[N+](=O)[O-]	40 µM (inactive)	63.1 µM (inactive)	19.1 µM (inactive)	10.6		25.4 µM (inactive)	5.78 µM (inactive)	14.2 µM (inactive)	5.57 µM (inactive)	23.3 µM (inactive)	22.6 µM (inactive)	37.7 µM (inactive)	25 µM (inactive)		12.3 µM (inactive)	41.6 µM (inactive)	13.7 µM (inactive)	35.6 µM (inactive)	36.9 µM (inactive)	6.75 µM (inactive)
N=c1sc(N2CCOCC2)nn1CC(=O)c1ccccc1	> 100 µM (inactive)	> 100 µM (inactive)	> 100 µM (inactive)	> 100		> 100 µM (inactive)	> 100 µM (inactive)	> 100 µM (inactive)	> 100 µM (inactive)	> 100 µM (inactive)	> 100 µM (inactive)	> 100 µM (inactive)		> 100 µM (inactive)	> 100 µM (inactive)	76.4 µM (inactive)	> 100 µM (inactive)	> 100 µM (inactive)	> 100 µM (inactive)	> 100 µM (inactive)
CC1(CCCC2(C)CCNC2=O)OCCO1 (stereo not given)	> 10 µM (inactive)	> 10 µM (inactive)	> 10 µM (inactive)	> 10		> 10 µM (inactive)	> 10 µM (inactive)	> 10 µM (inactive)	> 10 µM (inactive)	> 10 µM (inactive)		> 10 µM (inactive)	> 10 µM (inactive)	> 10 µM (inactive)	> 10 µM (inactive)	> 10 µM (inactive)	> 10 µM (inactive)	> 10 µM (inactive)	> 10 µM (inactive)	> 10 µM (inactive)
c1cc(CCN2CCCCC2)ccn1	> 100 µM (inactive)	> 100 µM (inactive)		> 100	> 100 µM (inactive)	> 100 µM (inactive)	> 100 µM (inactive)	> 100 µM (inactive)	> 100 µM (inactive)	> 100 µM (inactive)	> 100 µM (inactive)	> 100 µM (inactive)	> 100 µM (inactive)	> 100 µM (inactive)	> 100 µM (inactive)	> 100 µM (inactive)	> 100 µM (inactive)	> 100 µM (inactive)	> 100 µM (inactive)	
CCN(CC(=O)O)CC(=O)O	> 100 µM (inactive)	> 100 µM (inactive)	> 100 µM (inactive)	> 100	> 100 µM (inactive)	> 100 µM (inactive)	> 100 µM (inactive)	> 100 µM (inactive)	> 100 µM (inactive)	> 100 µM (inactive)	> 100 µM (inactive)	> 100 µM (inactive)	> 100 µM (inactive)	> 100 µM (inactive)	> 100 µM (inactive)	> 100 µM (inactive)	> 100 µM (inactive)	> 100 µM (inactive)	> 100 µM (inactive)	

— ChEMBL document CHEMBL1201862, “PubChem BioAssay data set” (2004)
